Assays:
[1] = biological target: T1, human cloned CHRM2 receptor (M2_CHO cells) (Homo sapiens, UniProt P08172); assay: CHRM2 Ca++ Flux Assay (agonist mode, FDSS 7000EX); type: cell-based; settings: for Emax: Percent Activity measured to EC100 of Carbachol, read-out: M2 FDSS PA; for EC50: agonist mode, geometric mean if tested more than once, read-out: M2 FDSS EC50
T1 construct: expressed in transfected cells; host or cells: CHO-K1
T1 sequence (P08172 1-466): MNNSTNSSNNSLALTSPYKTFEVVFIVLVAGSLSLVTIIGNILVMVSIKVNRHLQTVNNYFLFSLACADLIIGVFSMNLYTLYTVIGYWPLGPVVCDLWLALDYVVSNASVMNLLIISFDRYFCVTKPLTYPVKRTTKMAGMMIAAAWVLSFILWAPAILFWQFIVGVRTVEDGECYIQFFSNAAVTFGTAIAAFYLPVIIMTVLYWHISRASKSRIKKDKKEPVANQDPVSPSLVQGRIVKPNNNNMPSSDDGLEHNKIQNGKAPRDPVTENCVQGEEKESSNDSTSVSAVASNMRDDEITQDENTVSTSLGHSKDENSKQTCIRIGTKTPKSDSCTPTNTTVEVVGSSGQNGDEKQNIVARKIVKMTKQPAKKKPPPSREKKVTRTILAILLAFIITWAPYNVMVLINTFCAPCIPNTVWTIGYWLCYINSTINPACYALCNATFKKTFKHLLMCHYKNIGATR
How it was run: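 Response expressed as percent activity versus the Carbachol EC100, with curves fitted by four-parameter non-linear regression of triplicates. Stable M2_CHO cells were Ca++ dye-loaded and preincubated 60 min at room temperature in assay buffer containing 20 μM ATP; signal imaged for 3 minutes after compound.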

[2] = biological target: T2, human cloned CHRM5 receptor (M5_CHO) (Homo sapiens, UniProt P08912); assay: CHRM5 Ca++ Flux Assay (agonist mode, FDSS 7000EX); type: cell-based; settings: for Emax: Percent Activity measured to EC100 of Carbachol, read-out: M5 FDSS PA; for EC50: agonist mode, geometric mean if tested more than once, read-out: M5 FDSS EC50
T2 construct: expressed in transfected cells; host or cells: CHO (M5_CHO)
T2 sequence (P08912 1-532): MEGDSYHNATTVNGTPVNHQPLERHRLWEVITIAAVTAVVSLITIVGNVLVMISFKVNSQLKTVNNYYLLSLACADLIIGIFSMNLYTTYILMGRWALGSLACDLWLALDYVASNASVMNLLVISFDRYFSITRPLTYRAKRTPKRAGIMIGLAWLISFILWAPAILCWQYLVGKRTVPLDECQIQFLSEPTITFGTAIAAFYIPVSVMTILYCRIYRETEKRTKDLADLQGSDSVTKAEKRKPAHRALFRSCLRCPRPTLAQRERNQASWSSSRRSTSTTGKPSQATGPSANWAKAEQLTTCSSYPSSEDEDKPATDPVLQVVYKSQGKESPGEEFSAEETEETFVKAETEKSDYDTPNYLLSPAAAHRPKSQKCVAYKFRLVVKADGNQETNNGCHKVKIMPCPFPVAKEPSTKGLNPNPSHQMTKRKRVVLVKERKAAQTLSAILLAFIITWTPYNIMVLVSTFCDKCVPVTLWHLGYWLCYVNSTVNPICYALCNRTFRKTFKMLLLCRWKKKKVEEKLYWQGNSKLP
How it was run: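 Fluorescent intracellular Ca++ signal, recorded for 3 min, served as read-out for CHO-K1 cells stably carrying human M3 or M5 receptor. Triplicate 11-point dose responses were averaged and fitted to a four-parameter model, with percent activity referenced to the carbachol EC100.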

| Structure (SMILES) | Emax [1] [%] | EC50 [1] [nM] | Emax [2] [%] | EC50 [2] [nM] |
| --- | --- | --- | --- | --- |
| Fc1ccc(C2CCOC2)c(C2CCN([C@@H]3CCC4(C3)CN(c3nnco3)C4)CC2)c1 (mixture of isomers) [Example 2J, 2-((6R)-6-(4-(5-fluoro-2-(tetrahydrofuran-3-yl)phenyl)piperidin-1-yl)-2-azaspiro[3.4]octan-2-yl)-1,3,4-oxadiazole] | 37 | 36 | 0 | > 25000 |
| O=C(C1COC1)N1CC2(CC[C@H](N3CCC(c4ccccc4OC(F)(F)F)CC3)C2)C1 (single isomer, unassigned) [Example 8G] | 0 |  | 0 | > 25000 |
| O=C(N1CC2(CC[C@H](N3CCC(c4ccccc4C4CCOCC4)CC3)C2)C1)C1(F)CC1 (single isomer, unassigned) [Example 9M] | 0 |  | 0 | > 25000 |
| c1ccc(C2CCN([C@H]3CCC4(C3)CN(c3nnco3)C4)CC2)c(C2CCOCC2)c1 (single isomer, unassigned) [Example 10T] | 0 |  | 0 | > 25000 |
| c1ccc(C2CCN([C@@H]3CCC4(C3)CN(c3nnco3)C4)CC2)c(OC2CC3(COC3)C2)c1 [Example 1A, (R)-2-(6-(4-(2-((2-oxaspiro[3.3]heptan-6-yl)oxy)phenyl)piperidin-1-yl)-2-azaspiro[3.4]octan-2-yl)-1,3,4-oxadiazole] | 0 |  | 0 | > 25000 |
| c1ccc(C2CCN([C@@H]3CCC4(C3)CN(c3nnco3)C4)CC2)c(OC2COC2)c1 [Example 1D, (R)-2-(6-(4-(2-(oxetan-3-yloxy)phenyl)piperidin-1-yl)-2-azaspiro[3.4]octan-2-yl)-1,3,4-oxadiazole] | 40 | 35 | 0 | 4390 |
| c1ccc(C2CCN([C@@H]3CCC4(C3)CN(c3nnco3)C4)CC2)c(OC[C@@H]2COCCO2)c1 [Example 1E, 2-((R)-6-(4-(2-(((S)-1,4-dioxan-2-yl)methoxy)phenyl)piperidin-1-yl)-2-azaspiro[3.4]octan-2-yl)-1,3,4-oxadiazole] | 14 | 21 | 0 | > 25000 |
| CC(C)(O)CCOc1ccccc1C1CCN([C@@H]2CCC3(C2)CN(c2nnco2)C3)CC1 [Example 1F] | 0 |  | 0 | > 25000 |
| c1ccc(C2CCN([C@@H]3CCC4(C3)CN(c3nncs3)C4)CC2)c(OCC2COC2)c1 [Example 1G, (R)-2-(6-(4-(2-(oxetan-3-ylmethoxy)phenyl)piperidin-1-yl)-2-azaspiro[3.4]octan-2-yl)-1,3,4-thiadiazole] | 38 | 75 | 0 | > 25000 |
| FC1(COc2ccccc2C2CCN([C@@H]3CCC4(C3)CN(c3nncs3)C4)CC2)COC1 [Example 1H, (R)-2-(6-(4-(2-((3-fluorooxetan-3-yl)methoxy)phenyl)piperidin-1-yl)-2-azaspiro[3.4]octan-2-yl)-1,3,4-thiadiazole] | 41 | 30 | 10 | 2020 |
| c1ccc(C2CCN([C@@H]3CCC4(C3)CN(c3nncs3)C4)CC2)c(OCC2CCOCC2)c1 [Example 1I, (R)-2-(6-(4-(2-((tetrahydro-2H-pyran-4-yl)methoxy)phenyl)piperidin-1-yl)-2-azaspiro[3.4]octan-2-yl)-1,3,4-thiadiazole] | 28 | 92 | 0 | > 25000 |
| FC1(COc2ccccc2C2CCN([C@@H]3CCC4(C3)CN(c3nncs3)C4)CC2)CCOCC1 [Example 1J, (R)-2-(6-(4-(2-((4-fluorotetrahydro-2H-pyran-4-yl)methoxy)phenyl)piperidin-1-yl)-2-azaspiro[3.4]octan-2-yl)-1,3,4-thiadiazole] | 72 | 51 | 0 | > 25000 |
| c1ccc(C2CCN([C@@H]3CCC4(C3)CN(c3cncnc3)C4)CC2)c(OC2COC2)c1 [Example 1K, (R)-6-(4-(2-(oxetan-3-yloxy)phenyl)piperidin-1-yl)-2-(pyrimidin-5-yl)-2-azaspiro[3.4]octane] | 19 | 29 | 0 | > 25000 |
| c1ccc(C2CCN([C@@H]3CCC4(C3)CN(c3cncnc3)C4)CC2)c(OC2CCOCC2)c1 [Example 1L, (R)-2-(pyrimidin-5-yl)-6-(4-(2-((tetrahydro-2H-pyran-4-yl)oxy)phenyl)piperidin-1-yl)-2-azaspiro[3.4]octane] | 28 | 214 | 0 | > 25000 |
| c1ccc(C2CCN([C@@H]3CCC4(C3)CN(c3cncnc3)C4)CC2)c(OCC2CCOCC2)c1 [Example 1M, (R)-2-(pyrimidin-5-yl)-6-(4-(2-((tetrahydro-2H-pyran-4-yl)methoxy)phenyl)piperidin-1-yl)-2-azaspiro[3.4]octane] | 30 | 402 | 0 | > 25000 |
| c1ccc(C2CCN([C@@H]3CCC4(C3)CN(c3cncnc3)C4)CC2)c(OCC2COC2)c1 [Example 1N, (R)-6-(4-(2-(oxetan-3-ylmethoxy)phenyl)piperidin-1-yl)-2-(pyrimidin-5-yl)-2-azaspiro[3.4]octane] | 10 | 7 | 0 | > 25000 |
| c1ccc(C2CCN([C@@H]3CCC4(C3)CN(c3cncnc3)C4)CC2)c(OC2CC3(COC3)C2)c1 [Example 1O, (R)-6-(4-(2-((2-oxaspiro[3.3]heptan-6-yl)oxy)phenyl)piperidin-1-yl)-2-(pyrimidin-5-yl)-2-azaspiro[3.4]octane] | 0 |  | 0 | > 25000 |
| c1ccc(C2CCN([C@@H]3CCC4(C3)CN(c3cncnc3)C4)CC2)c(O[C@@H]2CCOC2)c1 [Example 1P, (R)-2-(pyrimidin-5-yl)-6-(4-(2-(((R)-tetrahydrofuran-3-yl)oxy)phenyl)piperidin-1-yl)-2-azaspiro[3.4]octane] | 7 | 7 | 0 | > 25000 |
| CC(C)(O)COc1ccccc1C1CCN([C@@H]2CCC3(C2)CN(c2nnco2)C3)CC1 [Example 2A, (R)-1-(2-(1-(2-(1,3,4-oxadiazol-2-yl)-2-azaspiro[3.4]octan-6-yl)piperidin-4-yl)phenoxy)-2-methylpropan-2-ol] | 12 | 117 | 0 | > 25000 |
| c1ccc(C2CCN([C@@H]3CCC4(C3)CN(c3nnco3)C4)CC2)c(O[C@@H]2CCOC2)c1 [Example 2B, 2-((R)-6-(4-(2-(((R)-tetrahydrofuran-3-yl)oxy)phenyl)piperidin-1-yl)-2-azaspiro[3.4]octan-2-yl)-1,3,4-oxadiazole] | 32 | 39 | 0 | > 25000 |
| COCCOc1ccccc1C1CCN([C@@H]2CCC3(C2)CN(c2nnco2)C3)CC1 [Example 2C] | 0 |  | 0 | > 25000 |
| FC1(COc2ccccc2C2CCN([C@@H]3CCC4(C3)CN(c3nnco3)C4)CC2)CCOCC1 [Example 2D, (R)-2-(6-(4-(2-((4-fluorotetrahydro-2H-pyran-4-yl)methoxy)phenyl)piperidin-1-yl)-2-azaspiro[3.4]octan-2-yl)-1,3,4-oxadiazole] | 8 | 50 | 0 | > 25000 |
| CC1(COc2ccccc2C2CCN([C@@H]3CCC4(C3)CN(c3nnco3)C4)CC2)CCOCC1 [Example 2E, (R)-2-(6-(4-(2-((4-methyltetrahydro-2H-pyran-4-yl)methoxy)phenyl)piperidin-1-yl)-2-azaspiro[3.4]octan-2-yl)-1,3,4-oxadiazole] | 10 | 90 | 0 | > 25000 |
